From PMC10819888, “Benzimidazole-Based Derivatives as Apoptotic Antiproliferative Agents: Design, Synthesis, Docking, and Mechanistic Studies” (Molecules, 2024)
Like-named read-outs stand apart in the source and are kept apart here.

How the values were obtained:
SN12C = assay: NCI-60 one-dose assay; type: cell-based; conditions: Homo sapiens, SN12C (Renal Cancer), read-out: Cell Inhibition Percent
SK-OV-3 = assay: NCI-60 one-dose assay; type: cell-based; conditions: Homo sapiens, SK-OV-3 (ovarian cancer), read-out: Cell Inhibition Percent
SNB-19 = assay: NCI-60 one-dose assay; type: cell-based; conditions: Homo sapiens, SNB-19 (CNS cancer), read-out: Cell Inhibition Percent
RXF 393 = assay: NCI-60 one-dose assay; type: cell-based; conditions: Homo sapiens, RXF 393 (Renal Cancer), read-out: Cell Inhibition Percent
K-562 = assay: NCI-60 one-dose assay; type: cell-based; conditions: Homo sapiens, K562, K-562 (Leukemia), read-out: Cell Inhibition Percent
MOLT-4 = assay: NCI-60 one-dose assay; type: cell-based; conditions: Homo sapiens, MOLT-4 (Leukemia), read-out: Cell Inhibition Percent
SW-620 = assay: NCI-60 one-dose assay; type: cell-based; conditions: Homo sapiens, SW-620 (Colon Cancer), read-out: Cell Inhibition Percent
CCRF-CEM = assay: NCI-60 one-dose assay; type: cell-based; conditions: Homo sapiens, CCRF-CEM (Leukemia), read-out: Cell Inhibition Percent
MCF7 = assay: NCI-60 one-dose assay; type: cell-based; conditions: Homo sapiens, MCF7 (Breast Cancer), read-out: Cell Inhibition Percent
CAKI-1 = assay: NCI-60 one-dose assay; type: cell-based; conditions: Homo sapiens, CAKI-1 (Renal Cancer), read-out: Cell Inhibition Percent
IGROV1 = assay: NCI-60 one-dose assay; type: cell-based; conditions: Homo sapiens, IGROV-1, IGROV1 (ovarian cancer), read-out: Cell Inhibition Percent
ACHN [1] = assay: NCI-60 one-dose assay; type: cell-based; conditions: Homo sapiens, ACHN (Renal Cancer), read-out: Cell Inhibition Percent
SF-295 = assay: NCI-60 one-dose assay; type: cell-based; conditions: Homo sapiens, SF-295 (CNS cancer), read-out: Cell Inhibition Percent
NCI/ADR-RES = assay: NCI-60 one-dose assay; type: cell-based; conditions: Homo sapiens, NCI/ADR-RES (ovarian cancer), read-out: Cell Inhibition Percent
HCT-116 = assay: NCI-60 one-dose assay; type: cell-based; conditions: Homo sapiens, HCT-116 (Colon Cancer), read-out: Cell Inhibition Percent
MDA-MB 231 = assay: NCI-60 one-dose assay; type: cell-based; conditions: Homo sapiens, MDA-MB 231 (Breast Cancer), read-out: Cell Inhibition Percent
EKVX = assay: NCI-60 one-dose assay; type: cell-based; conditions: Homo sapiens, EKVX (Non-Small Cell Lung Cancer), read-out: Cell Inhibition Percent
KM12 = assay: NCI-60 one-dose assay; type: cell-based; conditions: Homo sapiens, KM12 (Colon Cancer), read-out: Cell Inhibition Percent
OVCAR-8 = assay: NCI-60 one-dose assay; type: cell-based; conditions: Homo sapiens, OVCAR-8 (ovarian cancer), read-out: Cell Inhibition Percent
PC-3 = assay: NCI-60 one-dose assay; type: cell-based; conditions: Homo sapiens, PC-3 (Prostate Cancer), read-out: Cell Inhibition Percent
TK-10 = assay: NCI-60 one-dose assay; type: cell-based; conditions: Homo sapiens, TK-10 (Renal Cancer), read-out: Cell Inhibition Percent
SK-MEL-28 [2] = assay: NCI-60 one-dose assay; type: cell-based; conditions: Homo sapiens, SK-MEL-28 (Melanoma), read-out: Cell Inhibition Percent
NCI-H522 = assay: NCI-60 one-dose assay; type: cell-based; conditions: Homo sapiens, NCI-H522 (Non-Small Cell Lung Cancer), read-out: Cell Inhibition Percent
OVCAR-3 = assay: NCI-60 one-dose assay; type: cell-based; conditions: Homo sapiens, OVCAR-3 (ovarian cancer), read-out: Cell Inhibition Percent
786-0 = assay: NCI-60 one-dose assay; type: cell-based; conditions: Homo sapiens, 786-0 (Renal Cancer), read-out: Cell Inhibition Percent
SF-539 = assay: NCI-60 one-dose assay; type: cell-based; conditions: Homo sapiens, SF-539 (CNS cancer), read-out: Cell Inhibition Percent
DU-145 = assay: NCI-60 one-dose assay; type: cell-based; conditions: Homo sapiens, DU-145 (Prostate Cancer), read-out: Cell Inhibition Percent
COLO 205 = assay: NCI-60 one-dose assay; type: cell-based; conditions: Homo sapiens, COLO 205 (Colon Cancer), read-out: Cell Inhibition Percent
U251 = assay: NCI-60 one-dose assay; type: cell-based; conditions: Homo sapiens, U-251, U251 (CNS cancer), read-out: Cell Inhibition Percent
ACHN [3] = assay: NCI-60 five-dose assay; type: cell-based, human; conditions: for GI50 / CC50: Homo sapiens; for GI50: read-out: GI50 Conc. per Cell Line; for CC50: read-out: LC50 (the source's name)
SK-MEL-28 [4] = assay: NCI-60 five-dose assay; type: cell-based, human; conditions: for GI50 / CC50: Homo sapiens; for GI50: read-out: GI50 Conc. per Cell Line; for CC50: read-out: LC50 (the source's name)

| Structure (SMILES) | inhibition at 10 µM (SN12C) | inhibition at 10 µM (SK-OV-3) | inhibition at 10 µM (SNB-19) | inhibition at 10 µM (RXF 393) | inhibition at 10 µM (K-562) | inhibition at 10 µM (MOLT-4) | inhibition at 10 µM (SW-620) | inhibition at 10 µM (CCRF-CEM) | inhibition at 10 µM (MCF7) | inhibition at 10 µM (CAKI-1) | inhibition at 10 µM (IGROV1) | inhibition at 10 µM (ACHN [1]) | inhibition at 10 µM (SF-295) | inhibition at 10 µM (NCI/ADR-RES) | inhibition at 10 µM (HCT-116) | inhibition at 10 µM (MDA-MB 231) | inhibition at 10 µM (EKVX) | inhibition at 10 µM (KM12) | inhibition at 10 µM (OVCAR-8) | inhibition at 10 µM (PC-3) | other results |
| --- | --- | --- | --- | --- | --- | --- | --- | --- | --- | --- | --- | --- | --- | --- | --- | --- | --- | --- | --- | --- | --- |
| COc1ccc(C=NNC(=O)c2ccc3[nH]c(-c4ccc(Cl)cc4)nc3c2)cc1 [Compound 4g, N′-(4-Methoxybenzylidene)-2-(4-chlorophenyl)-1H-benzimidazole-5-carbohydrazide] | 93.8% | 27.7% | 75.8% | 56.2% | 68.1% | 31.8% | 75.6% | 34.7% | 83.3% | 39.5% | 85.4% | 78.1% | 139% | 26.4% | 81% | 60.2% | 70.6% | 82.7% | 68.7% | 104% | inhibition at 10 µM (TK-10): 60.9%; inhibition at 10 µM (SK-MEL-28 [2]): 87.5%; inhibition at 10 µM (NCI-H522): 17.4%; inhibition at 10 µM (OVCAR-3): 79.9%; inhibition at 10 µM (786-0): 96.8%; inhibition at 10 µM (SF-539): 57.4%; inhibition at 10 µM (DU-145): 20.7%; inhibition at 10 µM (COLO 205): 77.1%; inhibition at 10 µM (U251): 92%; TGI (ACHN [3]; ACHN, Renal Cancer): 5.04 µM; GI50 (ACHN [3]; ACHN, Renal Cancer): 2 µM; CC50 (ACHN [3]; ACHN, Renal Cancer): 16.9 µM; GI50 (SK-MEL-28 [4]; SK-MEL-28, Melanoma): 1.79 µM; CC50 (SK-MEL-28 [4]; SK-MEL-28, Melanoma): 6.35 µM; TGI (SK-MEL-28 [4]; SK-MEL-28, Melanoma): 3.37 µM |
| O=C(NN=Cc1ccc(Cl)cc1)c1ccc2[nH]c(-c3ccc(Cl)cc3)nc2c1 [Compound 4e, N′-(4-Chlorobenzylidene)-2-(4-chlorophenyl)-1H-benzimidazole-5-carbohydrazide] | 137% | 50.2% | 95.7% | 81.1% | 91.3% | 95.5% | 128% | 84.5% | 120% | 38.8% | 127% | 120% | 149% | 58.8% | 102% | 90.5% | 91.8% | 129% | 85.8% | 125% | inhibition at 10 µM (TK-10): 104%; inhibition at 10 µM (SK-MEL-28 [2]): 109%; inhibition at 10 µM (NCI-H522): 36.8%; inhibition at 10 µM (OVCAR-3): 153%; inhibition at 10 µM (786-0): 142%; inhibition at 10 µM (SF-539): 62.9%; inhibition at 10 µM (DU-145): 69.5%; inhibition at 10 µM (COLO 205): 124%; inhibition at 10 µM (U251): 115%; TGI (ACHN [3]; ACHN (Renal Cancer), 48 h): 3.17 µM; GI50 (ACHN [3]; ACHN (Renal Cancer), 48 h): 1.73 µM; CC50 (ACHN [3]; ACHN (Renal Cancer), 48 h): 5.78 µM; GI50 (SK-MEL-28 [4]; SK-MEL-28 (Melanoma), 48 h): 1.58 µM; CC50 (SK-MEL-28 [4]; SK-MEL-28 (Melanoma), 48 h): 5.86 µM; TGI (SK-MEL-28 [4]; SK-MEL-28 (Melanoma), 48 h): 3.04 µM |
| O=C(NN=Cc1ccc([N+](=O)[O-])cc1)c1ccc2[nH]c(-c3ccc(Cl)cc3)nc2c1 [Compound 4c, N′-(4-Nitrobenzylidene)-2-(4-chlorophenyl)-1H-benzimidazole-5-carbohydrazide] | 80.3% | 39.5% | 48% | 68.4% | 90.3% | 95.8% | 87.3% | 90.1% | 99.3% | 57.2% | 80.9% | 67.7% | 78.3% | 22.7% | 85.4% | 23.1% | 51% | 87% | 78.4% | 78.6% | inhibition at 10 µM (TK-10): 10.2%; inhibition at 10 µM (SK-MEL-28 [2]): 54.6%; inhibition at 10 µM (NCI-H522): 67%; inhibition at 10 µM (OVCAR-3): 88.7%; inhibition at 10 µM (786-0): 51%; inhibition at 10 µM (SF-539): 58.3%; inhibition at 10 µM (DU-145): 58%; inhibition at 10 µM (COLO 205): 97.7%; inhibition at 10 µM (U251): 77.7%; TGI (ACHN [3]; ACHN (Renal Cancer), 48 h): 31.90 µM; GI50 (ACHN [3]; ACHN (Renal Cancer), 48 h): 4.36 µM; CC50 (ACHN [3]; ACHN (Renal Cancer), 48 h): > 100 µM; GI50 (SK-MEL-28 [4]; SK-MEL-28 (Melanoma), 48 h): 2.6 µM; CC50 (SK-MEL-28 [4]; SK-MEL-28 (Melanoma), 48 h): 39 µM; TGI (SK-MEL-28 [4]; SK-MEL-28 (Melanoma), 48 h): 10.30 µM |
